Laboratory results taken from US20110230481A2, “DERIVATIVES OF TETRABROMOBENZIMIDAZOLE, A PROCESS FOR THE PREPARATION THEREOF, A PHARMACEUTICAL COMPOSITION COMPRISING THE SAME, A METHOD OF USING THE SAME, A METHOD FOR MODULATING OR REGULATING SERINE/THREONINE KINASES, AND SERINE/THREONINE KINASES MODULATING AGENT” (SELVITA S.A., priority 2009, published 2011).
Like-named read-outs stand apart in the source and are kept apart here.

Key:
CK2α = CK2α (Homo sapiens, UniProt P68400); test: Radiometric kinase assay (HotSpot)
Chain of CK2α (P68400 whole entry): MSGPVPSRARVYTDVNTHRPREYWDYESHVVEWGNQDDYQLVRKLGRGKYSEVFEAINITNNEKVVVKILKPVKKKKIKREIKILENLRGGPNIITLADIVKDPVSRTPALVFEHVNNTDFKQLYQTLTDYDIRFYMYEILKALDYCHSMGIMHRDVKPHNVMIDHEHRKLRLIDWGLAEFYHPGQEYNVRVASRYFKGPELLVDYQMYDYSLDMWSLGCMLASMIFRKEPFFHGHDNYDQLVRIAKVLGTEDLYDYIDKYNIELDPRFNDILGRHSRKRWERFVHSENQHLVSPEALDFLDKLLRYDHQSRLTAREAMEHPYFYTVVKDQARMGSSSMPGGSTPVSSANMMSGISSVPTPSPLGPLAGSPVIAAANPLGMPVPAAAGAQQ

PIM3 = PIM3 (Homo sapiens, UniProt Q86V86); test: Radiometric kinase assay (HotSpot); settings: for Selectivity for Pim-3 over CK2α: ratio of IC50 values
[1] = system: human acute myeloid leukemia MOLM-13 cells; test: Growth inhibition test (MTS); assay type: cell-based; settings: MOLM13, 72 hours, read-out: Cytotoxicity in MTS assay (ED50)
Experimental: Ten thousand cells of acute myeloid leukemia MOLM-13 were inoculated into each well of a 96-well microplate (manufactured by Corning Corp.) using RPMI 8226 medium (culture medium) containing 10% fetal calf serum (FCS). The same day, a dimethyl sulfoxide (DMSO) solution of each test compound prepared in a concentration of 10 mmol/L was further diluted with DMSO to the desired concentrations (0.1, 0.5, 1, 2.5, 5 and 10 micromol/L), and the diluted solution was added to each well. The individual wells were further cultured in 5% carbon dioxide at 37° C. for 72 hours. After completion of the culture, 10 μl MTS (3-(4,5-Dimethyl-2-thiazolyl)-5-(carboxymethoxyphenyl)-2-(4-sulfophenyl)-2H-tetrazolium, inner salt assay (CellTiter96® AQueous One Solution Cell Proliferation Assay, Promega) was added to each well, and culturing was performed in 5% carbon dioxide at 37° C. for 2 hours. Using a microplate spectrophotometer (Synergy 2 multi-mode microplate reader (BioTek)), the absorbance of each well was measured at 490 nm. The value for cells not incorporated with a test compound was designated as 100%. By comparing these values with the absorbance difference obtained at the well in which each test compound was added, the cell viability (% viability) after treatment with the test compound was calculated.

[2] = system: human acute promyelocytic leukemia HL-60 cells; test: Growth inhibition test (MTS); assay type: cell-based; settings: 72 hours
Experimental: (§1) Ten thousand cells of human acute promyelocytic leukemia HL-60 were inoculated into each well of a 96-well microplate (manufactured by Corning Corp.) using RPMI 8226 medium (culture medium) containing 10% fetal calf serum (FCS). The same day, a dimethyl sulfoxide (DMSO) solution of each test compound prepared in a concentration of 10 mmol/L was further diluted with DMSO to the desired concentrations (0.1, 0.5, 1, 2.5, 5 and 10 micromol/L), and the diluted solution was added to each well. The individual wells were further cultured in 5% carbon dioxide at 37° C. for 72 hours. After completion of the culture, 10 μl MTS (3-(4,5-Dimethyl-2-thiazolyl)-5-(carboxymethoxyphenyl)-2-(4-sulfophenyl)-2H-tetrazolium, inner salt assay (CellTiter96® AQueous One Solution Cell Proliferation Assay, Promega) was added to each well, and culturing was performed in 5% carbon dioxide at 37° C. for 2 hours. Using a microplate spectrophotometer (Synergy 2 multi-mode microplate reader (BioTek)), the absorbance of each well was measured at 490 nm. The value for cells not incorporated with a test compound was designated as 100%. By comparing these values with the absorbance difference obtained at the well in which each test compound was added, the cell viability (% viability) after treatment with the test compound was calculated.

PIM2 = PIM2 (Homo sapiens, UniProt Q9P1W9); test: Radiometric kinase assay (HotSpot); settings: for Selectivity for Pim-2 over CK2α: ratio of IC50 values
Chain of PIM2 (Q9P1W9 whole entry): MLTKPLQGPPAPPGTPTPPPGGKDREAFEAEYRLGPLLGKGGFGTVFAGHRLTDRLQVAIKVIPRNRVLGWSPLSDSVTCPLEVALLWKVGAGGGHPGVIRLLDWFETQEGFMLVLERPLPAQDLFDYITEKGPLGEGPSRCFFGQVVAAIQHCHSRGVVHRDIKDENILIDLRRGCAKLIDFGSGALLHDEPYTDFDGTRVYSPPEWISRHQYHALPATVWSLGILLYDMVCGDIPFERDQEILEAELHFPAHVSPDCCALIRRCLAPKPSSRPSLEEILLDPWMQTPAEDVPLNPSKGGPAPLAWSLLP

[3] = system: human acute lymphocytic leukemia E6.1 Jurkat cells; test: Growth inhibition test (MTS); assay type: cell-based; settings: 72 hours, read-out: Cytotoxicity in MTS assay (ED50)
Experimental: as §1, with “Twenty” for “Ten”, “lumphocytic” for “promyelocytic”, “E6.1 Jurkat” for “HL-60”

PIM1 = PIM1 (Homo sapiens, UniProt P11309); test: Radiometric kinase assay (HotSpot); settings: for Selectivity for Pim-1 over CK2α: ratio of IC50 values
Chain of PIM1 (P11309 whole entry): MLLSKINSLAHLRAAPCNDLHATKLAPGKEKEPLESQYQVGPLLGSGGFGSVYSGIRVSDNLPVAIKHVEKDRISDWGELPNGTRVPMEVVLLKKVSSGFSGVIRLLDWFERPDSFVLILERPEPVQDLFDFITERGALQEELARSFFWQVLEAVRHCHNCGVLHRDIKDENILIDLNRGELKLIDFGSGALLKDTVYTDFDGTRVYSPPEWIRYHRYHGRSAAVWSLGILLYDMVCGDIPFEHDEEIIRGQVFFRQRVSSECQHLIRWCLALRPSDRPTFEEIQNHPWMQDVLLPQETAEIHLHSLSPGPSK

[4] = system: human colorectal adenocarcinoma SW480 cells; test: Growth inhibition test (MTS); assay type: cell-based; settings: 72 hours
Experimental: as §1, with “Two” for “Ten”, “colorectal adenocarcinoma SW480” for “acute promyelocytic leukemia HL-60”, “Corp.), and” for “Corp.)”, “DMEM/Ham's F121:1” for “RPMI 8226”, “5%” for “10%”

[5] = read-out: Inhibitory activity (IC50 in nM) in radiometric cell free assay, Pim-3, ATP 1 μM, peptide 20 μM
[6] = read-out: Inhibitory activity (IC50 in nM) in radiometric cell free assay, Pim-2, ATP 1 μM, peptide 5 μM
[7] = read-out: Inhibitory activity (IC50 in nM) in radiometric cell free assay, Pim-1, ATP 1 μM, peptide 5 μM
[8] = read-out: Inhibitory activity (IC50 in nM) in radiometric cell free assay, CK2α, ATP 1 μM, peptide 20 μM

| IC50 (CK2α) [nM] | IC50 (PIM3) [nM] | IC50 (PIM2) [nM] | IC50 (PIM1) [nM] | SMILES | Selectivity for Pim-3 over CK2α (PIM3) | IC50 ([1]; Homo sapiens, MOLM-13) [nM] | Cytotoxicity in MTS assay (ED50) [2] [nM] | Selectivity for Pim-2 over CK2α (PIM2) | IC50 ([3]; Homo sapiens) [nM] | Selectivity for Pim-1 over CK2α (PIM1) | IC50 (PIM3; [5]) [nM] | IC50 (PIM2; [6]) [nM] | IC50 [3] [nM] | IC50 (PIM1; [7]) [nM] | Cytotoxicity in MTS assay (ED50) [4] [nM] | IC50 [1] [nM] | IC50 (CK2α; [8]) [nM] |
| --- | --- | --- | --- | --- | --- | --- | --- | --- | --- | --- | --- | --- | --- | --- | --- | --- | --- |
| 1830 | 84.1 | 1690 | 66.1 | CN1CCN(c2nc3c(Br)c(Br)c(Br)c(Br)c3[nH]2)CC1 [Compound 21, 4,5,6,7-tetrabromo-2-(4-methylpiperazin-1-yl)-1H-benzo[d]imidazole] | 21.7 | 1610 | >10000 | 1.1 | 2630 | 27.6 |  |  |  |  |  |  |  |
|  |  |  |  | CN(C)c1nc2c(Br)c(Br)c(Br)c(Br)c2[nH]1 [DMAT, reference compound] |  |  | >10000 |  |  |  | 87.3 | 2460 | 8180 | 64.6 |  |  |  |
| 833 | 28.2 | 618 | 43.8 | Brc1c(Br)c(Br)c2[nH]c(NCCN3CCCC3)nc2c1Br [Compound 14, 4,5,6,7-tetrabromo-N-(2-(pyrrolidin-1-yl)ethyl)-1H-benzo[d]imidazol-2-amine] | 29.6 | 1450 | 2040 | 1.3 | 2650 | 19.0 |  |  |  |  |  |  |  |
|  |  |  |  | Brc1c(Br)c(Br)c2[nH]nnc2c1Br [TBB, reference compound] |  |  |  |  |  |  | 269 | > 20000 | >10000 | 1840 | >10000 | >10000 |  |
|  |  |  |  | Brc1c(Br)c(Br)c2c(Br)n[nH]c2c1Br [Compound K64, reference compound] | 3.0 |  |  | 0.7 |  | 2.1 | 212 | 871 | >10000 | 308 | 9130 | >10000 | 637 |
| 2260 | 60.7 | 897 | 23.1 | Brc1c(Br)c(Br)c2[nH]c(NCCN3CCCCC3)nc2c1Br [Compound 13, 4,5,6,7-tetrabromo-N-(2-(piperidin-1-yl)ethyl)-1H-benzo[d]imidazol-2-amine] | 37.3 | 2180 | 3290 | 2.5 | 1340 | 98.2 |  |  |  |  |  |  |  |
| 6880 | 114 | 3010 | 67.7 | Brc1c(Br)c(Br)c2[nH]c(NCCN3CCOCC3)nc2c1Br [Compound 16, 4,5,6,7-tetrabromo-N-(2-morpholinoethyl)-1H-benzo[d]imidazol-2-amine] | 60.1 | 4660 | >10000 | 2.3 | 2460 | 101.6 |  |  |  |  |  |  |  |
|  |  |  |  | CN(C)c1nc2c(Br)c(Br)c(Br)c(Br)c2n1CC(=O)O [Compound K66, reference compound] | 2.1 |  |  | 0.2 |  | 1.1 | 96.3 | 954 | >10000 | 194 | >10000 | >10000 | 206 |
|  |  |  |  | Brc1c(Br)c(Br)c2[nH]cnc2c1Br [TBI, reference compound] |  |  |  |  |  |  | 2940 | > 20000 | >10000 | 1670 | 7210 | 9720 |  |

| SMILES | IC50 (CK2α) [nM] | IC50 (PIM3) [nM] | IC50 (PIM2) [nM] | IC50 (PIM1) [nM] | Selectivity for Pim-3 over CK2α (PIM3) | IC50 ([1]; Homo sapiens, MOLM-13) [nM] | Cytotoxicity in MTS assay (ED50) [2] [nM] | Selectivity for Pim-2 over CK2α (PIM2) | IC50 ([3]; Homo sapiens) [nM] | Selectivity for Pim-1 over CK2α (PIM1) | IC50 (PIM3; [5]) [nM] | IC50 (PIM2; [6]) [nM] | IC50 [3] [nM] | IC50 (PIM1; [7]) [nM] | Cytotoxicity in MTS assay (ED50) [4] [nM] | IC50 [1] [nM] | IC50 (CK2α; [8]) [nM] |
| --- | --- | --- | --- | --- | --- | --- | --- | --- | --- | --- | --- | --- | --- | --- | --- | --- | --- |
| NCCCNc1nc2c(Br)c(Br)c(Br)c(Br)c2[nH]1 [Compound 11, N-(3-aminopropyl)-4,5,6,7-tetrabromo-1H-benzo[d]imidazol-2-amine] | 1020 | 23.3 | 98.2 | 4.8 | 43.6 | 1370 | 6120 | 10.3 | 1750 | 211.7 |  |  |  |  | 3460 |  |  |
| Brc1c(Br)c(Br)c2[nH]c(N3CCNCC3)nc2c1Br [Compound 20, 4,5,6,7-tetrabromo-2-(piperazin-1-yl)-1H-benzo[d]imidazole] | 132 | 42 | 326 | 76.9 | 3.1 | 1590 | 7880 | 0.4 | 2190 | 1.7 |  |  |  |  | 4910 |  |  |
